Laboratory results from ChEMBL document CHEMBL1201862, “PubChem BioAssay data set” (2004).
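Briefly, cells in 96-well plates were exposed to five compound concentrations for 48 h, and endpoints were estimated by linear interpolation. The concentration for 50% growth inhibition is given as GI50.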 Activity calls are given as the source filed them. No stated cut-off is given here; in the data, active = GI50 up to about 1.1 µM and inactive = higher. Where a SMILES comes first, the peptide text is derived from it. The star is where a group is joined. OSu = O=C1CCC(=O)N1O*; OBn = c1ccc(CO*)cc1; Bn = c1ccc(C*)cc1

Legend:
Test in all cases: inhibition of tumour cell growth, NCI panel, 48 h
ACHN = tested on: ACHN
EKVX = tested on: EKVX
HCC 2998 = tested on: HCC 2998
HCT-116 = tested on: HCT-116
HOP-62 = tested on: HOP-62
IGROV-1 = tested on: IGROV-1
MDA-MB-231 = tested on: MDA-MB-231
MDA-N = tested on: MDA-N
NCI-H23 = tested on: NCI-H23
NCI-H460 = tested on: NCI-H460
OVCAR-4 = tested on: OVCAR-4
OVCAR-5 = tested on: OVCAR-5
SK-MEL-2 = tested on: SK-MEL-2
SK-MEL-5 = tested on: SK-MEL-5
SK-OV-3 = tested on: SK-OV-3
SN12C = tested on: SN12C
TK-10 = tested on: TK-10
UACC-257 = tested on: UACC-257
UO-31 = tested on: UO-31
DU-145 = tested on: DU-145

| Compound | GI50 (ACHN) | GI50 (EKVX) | GI50 (HCC 2998) | GI50 (HCT-116) | GI50 (HOP-62) | GI50 (IGROV-1) | GI50 (MDA-MB-231) | GI50 (MDA-N) | GI50 (NCI-H23) | GI50 (NCI-H460) | GI50 (OVCAR-4) | GI50 (OVCAR-5) | GI50 (SK-MEL-2) | GI50 (SK-MEL-5) | GI50 (SK-OV-3) | GI50 (SN12C) | GI50 (TK-10) | GI50 (UACC-257) | GI50 (UO-31) | GI50 (DU-145) |
| --- | --- | --- | --- | --- | --- | --- | --- | --- | --- | --- | --- | --- | --- | --- | --- | --- | --- | --- | --- | --- |
| N#CC(CC(=O)O)=C(c1ccccc1)c1ccccc1 | > 100 µM (inactive) | > 100 µM (inactive) | > 100 µM (inactive) | > 100 µM (inactive) | > 100 µM (inactive) | > 100 µM (inactive) | > 100 µM (inactive) | > 100 µM (inactive) | > 100 µM (inactive) | > 100 µM (inactive) | > 100 µM (inactive) | > 100 µM (inactive) | > 100 µM (inactive) | > 100 µM (inactive) | > 100 µM (inactive) | > 100 µM (inactive) | > 100 µM (inactive) | > 100 µM (inactive) | > 100 µM (inactive) | – |
| [N-]=[N+]=Nc1ccccc1-c1ccccc1[N+](=O)[O-] | > 100 µM (inactive) | 39.4 µM (inactive) | – | 43 µM (inactive) | 87.9 µM (inactive) | > 100 µM (inactive) | 50.2 µM (inactive) | 30.9 µM (inactive) | 35.1 µM (inactive) | 26.9 µM (inactive) | 72.9 µM (inactive) | > 100 µM (inactive) | 27.2 µM (inactive) | – | > 100 µM (inactive) | 97.9 µM (inactive) | 39.4 µM (inactive) | 25.4 µM (inactive) | 72.8 µM (inactive) | 88.5 µM (inactive) |
| CCOC(=O)CSc1nc(-c2ccc(OC)cc2)c(C#N)c(=O)[nH]1 | > 100 µM (inactive) | > 100 µM (inactive) | > 100 µM (inactive) | > 100 µM (inactive) | > 100 µM (inactive) | > 100 µM (inactive) | > 100 µM (inactive) | – | > 100 µM (inactive) | > 100 µM (inactive) | > 100 µM (inactive) | > 100 µM (inactive) | > 100 µM (inactive) | > 100 µM (inactive) | > 100 µM (inactive) | > 100 µM (inactive) | > 100 µM (inactive) | > 100 µM (inactive) | 51.9 µM (inactive) | > 100 µM (inactive) |
| COc1ccc2nc3c(c(N)c2c1)C1CCC3C1(C)C (stereo not given) | > 100 µM (inactive) | 30.6 µM (inactive) | 17.5 µM (inactive) | 32.4 µM (inactive) | 16 µM (inactive) | 42.9 µM (inactive) | 24 µM (inactive) | – | 54.8 µM (inactive) | 31.2 µM (inactive) | 47.6 µM (inactive) | 41 µM (inactive) | 25.5 µM (inactive) | 12.5 µM (inactive) | 28.1 µM (inactive) | 52.1 µM (inactive) | 32.7 µM (inactive) | 18.9 µM (inactive) | 47.4 µM (inactive) | > 100 µM (inactive) |
| Cc1ccc(S(=O)(=O)NC(=O)Nc2ccc(C(=O)O)c(O)c2)cc1 | > 100 µM (inactive) | > 100 µM (inactive) | > 100 µM (inactive) | > 100 µM (inactive) | > 100 µM (inactive) | – | > 100 µM (inactive) | – | > 100 µM (inactive) | > 100 µM (inactive) | > 100 µM (inactive) | > 100 µM (inactive) | > 100 µM (inactive) | > 100 µM (inactive) | > 100 µM (inactive) | – | > 100 µM (inactive) | – | > 100 µM (inactive) | > 100 µM (inactive) |
| CCCCN(CCCC)CC(O)c1cc(-c2ccc(C(F)(F)F)cc2)nc(-c2ccc(C(F)(F)F)cc2)c1 (stereo not given) | > 100 µM (inactive) | 39.4 µM (inactive) | 22.6 µM (inactive) | 61.8 µM (inactive) | 70.8 µM (inactive) | > 100 µM (inactive) | 15.7 µM (inactive) | – | > 100 µM (inactive) | > 100 µM (inactive) | > 100 µM (inactive) | > 100 µM (inactive) | > 100 µM (inactive) | – | > 100 µM (inactive) | 26.1 µM (inactive) | > 100 µM (inactive) | 49.3 µM (inactive) | 95.7 µM (inactive) | > 100 µM (inactive) |
| O=C(O)CCC(NC(=O)c1ccc(CNc2nc3ccccc3nc2C(=O)O)cc1)C(=O)O (stereo not given) | > 100 µM (inactive) | > 100 µM (inactive) | – | > 100 µM (inactive) | > 100 µM (inactive) | > 100 µM (inactive) | > 100 µM (inactive) | > 100 µM (inactive) | > 100 µM (inactive) | – | > 100 µM (inactive) | > 100 µM (inactive) | > 100 µM (inactive) | > 100 µM (inactive) | > 100 µM (inactive) | > 100 µM (inactive) | > 100 µM (inactive) | > 100 µM (inactive) | > 100 µM (inactive) | > 100 µM (inactive) |
| Cc1cc(C)nc(NC(=S)Nc2ccc([N+](=O)[O-])cc2)c1 | > 100 µM (inactive) | > 100 µM (inactive) | > 100 µM (inactive) | > 100 µM (inactive) | > 100 µM (inactive) | > 100 µM (inactive) | > 100 µM (inactive) | – | > 100 µM (inactive) | > 100 µM (inactive) | > 100 µM (inactive) | – | > 100 µM (inactive) | > 100 µM (inactive) | – | – | > 100 µM (inactive) | > 100 µM (inactive) | > 100 µM (inactive) | > 100 µM (inactive) |
| Oc1ccc2ccccc2c1/N=N/c1ccc(/N=N/c2ccccc2)cc1 | > 100 µM (inactive) | > 100 µM (inactive) | – | 93.1 µM (inactive) | > 100 µM (inactive) | > 100 µM (inactive) | 89.1 µM (inactive) | 50 µM (inactive) | > 100 µM (inactive) | – | > 100 µM (inactive) | > 100 µM (inactive) | > 100 µM (inactive) | > 100 µM (inactive) | > 100 µM (inactive) | > 100 µM (inactive) | > 100 µM (inactive) | > 100 µM (inactive) | 59 µM (inactive) | > 100 µM (inactive) |
| CNc1ncnc(Sc2nc(N)nc3[nH]cnc23)c1[N+](=O)[O-] | 2.84 µM (inactive) | 3.08 µM (inactive) | – | 0.39 µM (active) | 0.675 µM (active) | 3.85 µM (inactive) | 1.73 µM (inactive) | 0.552 µM (active) | 1.21 µM (inactive) | 0.552 µM (active) | 1.46 µM (inactive) | 2.25 µM (inactive) | 0.634 µM (active) | 2.9 µM (inactive) | 0.547 µM (active) | 0.933 µM (active) | 0.251 µM (active) | 1.54 µM (inactive) | 0.676 µM (active) | 0.356 µM (active) |
| CCC(=O)Nc1ccc(NCC(=O)Nc2ccc(OC)cc2)cc1 | 40.5 µM (inactive) | 16.7 µM (inactive) | 6.76 µM (inactive) | 26.1 µM (inactive) | 2.99 µM (inactive) | 25.8 µM (inactive) | – | 29.8 µM (inactive) | 19.9 µM (inactive) | – | 13.2 µM (inactive) | 17.4 µM (inactive) | 18.4 µM (inactive) | 17.5 µM (inactive) | 8.67 µM (inactive) | 18.1 µM (inactive) | – | 7.8 µM (inactive) | 45.5 µM (inactive) | 31.8 µM (inactive) |
| CC(C)CC(NC(=O)C(N)CCC(=O)OCc1ccccc1)C(=O)NC(COCc1ccccc1)C(=O)NC(Cc1ccccc1)C(=O)ON1C(=O)CCC1=O (stereo not given) (H-E(OBn)LS(Bn)F-OSu; configuration not given here) | 31.6 µM (inactive) | 32.1 µM (inactive) | – | 16.4 µM (inactive) | – | 23.4 µM (inactive) | 18.1 µM (inactive) | 21.4 µM (inactive) | 26.4 µM (inactive) | 32.7 µM (inactive) | 27.8 µM (inactive) | 28.8 µM (inactive) | 30.8 µM (inactive) | 17.4 µM (inactive) | 25.4 µM (inactive) | 29.8 µM (inactive) | 26.7 µM (inactive) | 28.3 µM (inactive) | 23.6 µM (inactive) | 27.7 µM (inactive) |
| Nn1c(-c2ccccc2)nn(C(=O)c2ccccc2)c1=O | > 100 µM (inactive) | > 100 µM (inactive) | > 100 µM (inactive) | > 100 µM (inactive) | > 100 µM (inactive) | > 100 µM (inactive) | > 100 µM (inactive) | > 100 µM (inactive) | > 100 µM (inactive) | > 100 µM (inactive) | > 100 µM (inactive) | > 100 µM (inactive) | – | > 100 µM (inactive) | – | 87.1 µM (inactive) | > 100 µM (inactive) | > 100 µM (inactive) | > 100 µM (inactive) | > 100 µM (inactive) |
| CCC(=O)N(c1ccccc1)C(C)CN1CCC(O)(c2cccc(C(F)(F)F)c2)CC1 (stereo not given) | 36.2 µM (inactive) | 31.8 µM (inactive) | 26.5 µM (inactive) | 17.3 µM (inactive) | 21.5 µM (inactive) | 59.2 µM (inactive) | 21.6 µM (inactive) | 19.5 µM (inactive) | 21.4 µM (inactive) | – | 33.3 µM (inactive) | 22.8 µM (inactive) | 20.9 µM (inactive) | 20.6 µM (inactive) | 52.6 µM (inactive) | 37.9 µM (inactive) | 25.1 µM (inactive) | 17.5 µM (inactive) | 28.8 µM (inactive) | – |
| C(=NCCN1CCOCC1)=NC1CCCCC1 | > 100 µM (inactive) | > 100 µM (inactive) | – | > 100 µM (inactive) | > 100 µM (inactive) | > 100 µM (inactive) | > 100 µM (inactive) | > 100 µM (inactive) | > 100 µM (inactive) | > 100 µM (inactive) | > 100 µM (inactive) | > 100 µM (inactive) | > 100 µM (inactive) | > 100 µM (inactive) | > 100 µM (inactive) | > 100 µM (inactive) | > 100 µM (inactive) | > 100 µM (inactive) | > 100 µM (inactive) | > 100 µM (inactive) |
